Results: the NIST ThermoML archive (doi:10.1016/j.jct.2014.07.022)

Assay: xn = mol fraction of the nth substance listed
Settings: Gas, Spherical resonator

[C-]#[O+] [carbon monoxide] + N#N
Settings	speed of sound [m/s]
273.04 K, 5000 kPa, x1 = 0.04999	345.57
273.04 K, 7995 kPa, x1 = 0.04999	354.43
273.05 K, 99 kPa, x1 = 0.04999	336.94
273.05 K, 995 kPa, x1 = 0.04999	337.99
273.05 K, 2997 kPa, x1 = 0.04999	341.18
273.05 K, 3989 kPa, x1 = 0.04999	343.2
273.05 K, 5997 kPa, x1 = 0.04999	348.21
273.05 K, 6998 kPa, x1 = 0.04999	351.18
273.11 K, 1992 kPa, x1 = 0.04999	339.44
273.16 K, 996 kPa, x1 = 0.1002	338.03
273.17 K, 1993 kPa, x1 = 0.1002	339.46
273.17 K, 2993 kPa, x1 = 0.1002	341.21
273.17 K, 4989 kPa, x1 = 0.1002	345.57
273.17 K, 6000 kPa, x1 = 0.1002	348.25
273.18 K, 3997 kPa, x1 = 0.1002	343.25
273.18 K, 6994 kPa, x1 = 0.1002	351.2
273.18 K, 8019 kPa, x1 = 0.1002	354.55
273.18 K, 8970 kPa, x1 = 0.1002	357.95
273.2 K, 9955 kPa, x1 = 0.1002	361.78
273.24 K, 9010 kPa, x1 = 0.04999	358.19
273.24 K, 9993 kPa, x1 = 0.04999	361.99
324.94 K, 117 kPa, x1 = 0.1002	367.62
324.94 K, 5998 kPa, x1 = 0.1002	381.69
324.94 K, 10006 kPa, x1 = 0.1002	394.85
324.95 K, 1001 kPa, x1 = 0.1002	369.33
324.95 K, 3002 kPa, x1 = 0.1002	373.73
324.95 K, 3998 kPa, x1 = 0.1002	376.19
324.95 K, 8963 kPa, x1 = 0.1002	391.17
324.96 K, 1989 kPa, x1 = 0.1002	371.42
324.96 K, 5002 kPa, x1 = 0.1002	378.87
324.96 K, 6999 kPa, x1 = 0.1002	384.73
324.96 K, 7996 kPa, x1 = 0.1002	387.92
324.99 K, 8000 kPa, x1 = 0.04999	387.94
325 K, 1002 kPa, x1 = 0.04999	369.31
325 K, 1991 kPa, x1 = 0.04999	371.4
325.01 K, 99 kPa, x1 = 0.04999	367.57
325.01 K, 3003 kPa, x1 = 0.04999	373.73
325.01 K, 4998 kPa, x1 = 0.04999	378.87
325.03 K, 3999 kPa, x1 = 0.04999	376.21
325.03 K, 5995 kPa, x1 = 0.04999	381.72
325.05 K, 9002 kPa, x1 = 0.04999	391.36
325.13 K, 10001 kPa, x1 = 0.04999	394.94
325.23 K, 7007 kPa, x1 = 0.04999	384.9
